The subject of the assay is HBV. Nature of the assay: HBV infection in HepG2-NTCP cells (HBeAg AlphaLISA in supernatants). Particulars: Hepatitis B virus, 192 h; HBV infection of HepG2-NTCP cells; HBeAg in supernatants at day 8 post infection; read-out: Cellular EC50. It is filed as cell-based. The essentials: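 HepG2-NTCP A3 cells were pre-incubated 2 h with 3-fold serially diluted compounds, then infected with HBV at 2000 GE/cell with 4% PEG (0.5% DMSO final). After washing on day 1, cells stayed in 2.5% DMSO medium; supernatant HBeAg measured by AlphaLISA on day 8, EC50 versus DMSO controls.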
A general note: Alpha assays give light when donor and acceptor beads are brought close together.

This note sets out measurements from patent US20240368096A1 (Enanta Pharmaceuticals, Inc., priority 2022, published 2024).

One may read the EC50 as the concentration giving half of the maximal effect.

As for `CC(C)C[C@@H]1CN(c2ccccc2)c2cc(N3CCc4cccc(F)c43)c(-c3ccc(Cl)c(C(=O)O)c3)cc2S(=O)(=O)N1C` [Example 553], the EC50 fell in the range of 100 to 1000 nM. As for `CN1[C@H](C2CCCCC2)CN(c2ccccc2)c2cc(Oc3ccccc3F)c(-c3ccc(Cl)c(C(=O)O)c3)cc2S1(=O)=O` [Example 401, (R)-2-chloro-5-(3-cyclohexyl-7-(2-fluorophenoxy)-2-methyl-1,1-dioxido-5-phenyl-2,3,4,5-tetrahydrobenzo[f][1,2,5]thiadiazepin-8-yl)benzoic acid], the figure is < 100 nM; as for `CC(=O)N1CCC(Oc2cc3c(cc2-c2ccc(F)c(C(=O)O)c2)S(=O)(=O)N(C)[C@H](C2CCCCC2)CN3c2ccccc2)CC1` [Example 395, (R)-5-(7-((1-acetylpiperidin-4-yl)oxy)-3-cyclohexyl-2-methyl-1,1-dioxido-5-phenyl-2,3,4,5-tetrahydrobenzo[f][1,2,5]thiadiazepin-8-yl)-2-fluorobenzoic acid], 100 to 1000 nM.

Turning to `CC(C)C[C@@H]1CN(c2ccccc2)c2cc(Cl)c(-c3ccc(Cl)c(C(=O)O)c3)cc2S(=O)(=O)N1C` [Example 60], the EC50 is < 100 nM. In the case of `CN1[C@H](C2CCCCC2)CN(c2ccccc2)c2cc(Cl)c(-c3ccc(NS(=O)(=O)CCC(F)(F)F)c(C(=O)O)c3)cc2S1(=O)=O` [Example 268] it was < 100 nM; in that of `CCO[C@H](C)[C@@H]1CN(c2ccccc2)c2cc(Cl)c(-c3ccc(F)c(C(=O)O)c3)cc2S(=O)(=O)N1C` [Example 92], 100 to 1000 nM. As for `CN1[C@H](C2CCC2)CN(c2ccccc2)c2cc(Cl)c(-c3cccc(P(=O)(O)O)c3)cc2S1(=O)=O` [Example 234], the figure is 100 to 1000 nM. With `CN1[C@H](C2CCCCC2)CN(c2ccccc2)c2cc(Cl)c(-c3ccc4oncc4c3)cc2S1(=O)=O` [Example 202], the EC50 fell in the range of 100 to 1000 nM.

`CC(C)CS(=O)(=O)Nc1cc(-c2cc3c(cc2Cl)N(c2ccccc2)C[C@@H](C2CCCCC2)N(C)S3(=O)=O)sc1C(=O)O` [Example 276]: the EC50 is < 100 nM. In the case of `CSc1cc2c(cc1-c1cccc(C(=O)O)c1)S(=O)(=O)N1C[C@H](C(F)(F)F)C[C@@H]1CN2c1ccccc1` [Example 23] it was > 1000 nM; in that of `CC(C)C[C@@H]1CN(c2ccccc2)c2cc(OC3CC4(COC4)C3)c(-c3ccc(F)c(C(=O)O)c3)cc2S(=O)(=O)N1C` [Example 444], 100 to 1000 nM; in that of `C[C@H](OCc1ccccc1)[C@@H]1CN(c2ccccc2)c2cc(Cl)c(-c3ccc(F)c(C(=O)O)c3)cc2S(=O)(=O)N1C` [Example 90], 100 to 1000 nM.

With `CN1[C@H](CNC(C)(C)C)CN(c2ccccc2)c2cc(Cl)c(-c3ccc(F)c(C(=O)O)c3)cc2S1(=O)=O` [Example 114], the EC50 was > 1000 nM. As for `CN1[C@H](C2CCCCC2)CN(c2ccccc2)c2cc(OCc3ccccc3)c(-c3cc(F)c(C(=O)O)s3)cc2S1(=O)=O` [Example 508], the figure is < 100 nM; as for `CN1[C@H](C2CCCCC2)CN(c2ccccc2)c2cc(Cl)c(-c3cc(NC(=O)OCCC(F)(F)F)c(C(=O)O)s3)cc2S1(=O)=O` [Example 245], 100 to 1000 nM.

As to `CN1[C@H](C2CCCCC2)CN(c2cccc(Cl)c2)c2cc(Cl)c(-c3ccc(F)c(C(=O)O)c3)cc2S1(=O)=O` [Example 296], the EC50 was < 100 nM. As for `CC(C)CC1CN(c2cccc(F)c2)c2cc(Cl)c(-c3cccc(C(=O)O)c3)cc2S(=O)(=O)N1C` (stereo not shown) [Example 329], the figure is 100 to 1000 nM; as for `CN1[C@H](C2CCCCC2)CN(c2ccccc2)c2cc(C3CCN(C(=O)OC(C)(C)C)CC3)c(-c3ccc(F)c(C(=O)O)c3)cc2S1(=O)=O` [Example 590], 100 to 1000 nM. As for `CN1[C@H](C2CCCCC2)CN(c2ccccc2)c2cc(F)c(-c3ccc(F)c(C(=O)O)c3)cc2S1(=O)=O` [Example 176], the figure is < 100 nM.

As to `CCCCOc1cccc(N2C[C@@H](C3CCCCC3)N(C)S(=O)(=O)c3cc(-c4ccc(F)c(C(=O)O)c4)c(Cl)cc32)c1` [Example 310], the EC50 is < 100 nM. With `COCCC(=O)N1CCC(c2cc3c(cc2-c2ccc(F)c(C(=O)O)c2)S(=O)(=O)N(C)[C@H](C2CCCCC2)CN3c2ccccc2)CC1` [Example 600], the EC50 was > 1000 nM.

Consider `O=C(O)c1cc(-c2cc3c(cc2Cl)N(c2ccccc2)CC(C2CCCCC2)CS3(=O)=O)cc(F)c1F` (racemic) [Example 606, Rac-5-(7-chloro-3-cyclohexyl-1,1-dioxido-5-phenyl-2,3,4,5-tetrahydrobenzo[b][1,4]thiazepin-8-yl)-2,3-difluorobenzoic acid], for which the EC50 was < 100 nM. With `CN1C(CC2CCCC2)CN(c2ccccc2)c2cc(Cl)c(-c3ccc(Cl)c(C(=O)O)c3)cc2S1(=O)=O` (stereo not shown) [Example 78], the EC50 was 100 to 1000 nM. For `Cc1ccc(F)cc1Oc1cc2c(cc1-c1ccc(F)c(C(=O)O)c1)S(=O)(=O)N(C)[C@H](C1CCCCC1)CN2c1ccccc1` [Example 413], the EC50 was 100 to 1000 nM. In the case of `CC(C)CC1CN(c2ccccc2)c2cc(Cl)c(-c3cc(Cl)cc(C(=O)O)c3)cc2S(=O)(=O)N1C` (stereo not shown) [Example 37] it was 100 to 1000 nM; in that of `CN1[C@H](C2CCCCC2)CN(c2ccccc2)c2cc(Cl)c(-c3cc(C(=O)O)n(C)n3)cc2S1(=O)=O` [Example 134], < 100 nM.

On to `O=C(O)c1cc(-c2cc3c(cc2Cl)N(c2ccccc2)C[C@@H](C2CCCCC2)NS3(=O)=O)ccc1F` [Example 58], for which the EC50 lay in the range of 100 to 1000 nM. `CN1[C@H](C2CCCCC2)CN(c2ccccc2)c2cc(O[C@@H]3CCN(C(=O)OC(C)(C)C)C3)c(-c3ccc(F)c(C(=O)O)c3)cc2S1(=O)=O` [Example 397]: the EC50 was < 100 nM. In the case of `COCCOc1cc2c(cc1-c1ccc(NC(=O)OCc3ccccc3)c(C(=O)O)c1)S(=O)(=O)N(C)[C@H](C1CCCCC1)CN2c1ccccc1` [Example 478, (R)-2-(((benzyloxy)carbonyl)amino)-5-(3-cyclohexyl-7-(2-methoxyethoxy)-2-methyl-1,1-dioxido-5-phenyl-2,3,4,5-tetrahydrobenzo[f][1,2,5]thiadiazepin-8-yl)benzoic acid] it was < 100 nM; in that of `CCOc1cc2c(cc1-c1ccc(F)c(C(=O)O)c1)S(=O)(=O)N(C)[C@H](C1CCCCC1)CN2c1ccccc1` [Example 349], < 100 nM. As for `COc1cc2c(cc1-c1cccc(C(=O)O)c1)S(=O)(=O)N(C)C(C)CN2c1ccccc1` (stereo not shown) [Example 15, 3-(7-methoxy-2,3-dimethyl-1,1-dioxido-5-phenyl-2,3,4,5-tetrahydrobenzo[f][1,2,5]thiadiazepin-8-yl)benzoic acid], the figure is > 1000 nM; as for `CN1[C@H](C2CCCCC2)CN(c2ccccc2)c2cc(C3CCN(C(=O)c4cnn(C)c4)CC3)c(-c3ccc(F)c(C(=O)O)c3)cc2S1(=O)=O` [Example 598], > 1000 nM; as for `Cc1cscc1COc1cc2c(cc1-c1ccc(F)c(C(=O)O)c1)S(=O)(=O)N(C)[C@H](C1CCCCC1)CN2c1ccccc1` [Example 338], < 100 nM.

Consider `CC(C)CC1CN(c2ccccc2)c2cc(C#N)c(-c3cccc(C(=O)O)c3)cc2S(=O)(=O)N1C` (stereo not shown) [Example 14], for which the EC50 lay in the range of 100 to 1000 nM. In the case of `CO[C@@H](C)[C@@H]1CN(c2ccccc2)c2cc(Cl)c(-c3ccc(F)c(C(=O)O)c3)cc2S(=O)(=O)N1C` [Example 88, 5-((S)-7-chloro-3-((S)-1-methoxyethyl)-2-methyl-1,1-dioxido-5-phenyl-2,3,4,5-tetrahydrobenzo[f][1,2,5]thiadiazepin-8-yl)-2-fluorobenzoic acid] it was > 1000 nM; in that of `CC(C)[C@@H]1CN(c2ccccc2)c2cc(Cl)c(-c3cc(F)c(F)c(C(=O)O)c3)cc2S(=O)(=O)N1C` [Example 63], < 100 nM; in that of `CN1[C@H](C2CCCCC2)CN(c2ccccc2)c2cc(Oc3ccccn3)c(-c3ccc(F)c(C(=O)O)c3)cc2S1(=O)=O` [Example 414], 100 to 1000 nM. On to `CN1[C@@H](CC2CCCCC2)CN(c2ccccc2)c2cc(Cl)c(-c3cccc(C(=O)O)c3)cc2S1(=O)=O` [Example 43], for which the EC50 was > 1000 nM.

Turning to `CN1[C@H](C2CCCCC2)CN(c2ccccc2)c2cc(OCc3ccsc3)c(-c3ccc(NC(=O)OCc4ccccc4)c(C(=O)O)c3)cc2S1(=O)=O` [Example 481], the EC50 was < 100 nM. In the case of `CN1[C@H](C2CCCCC2)CN(c2ccccc2)c2cc(C34CC(C3)C4)c(-c3ccc(F)c(C(=O)O)c3)cc2S1(=O)=O` [Example 587] it was 100 to 1000 nM.

As for `CN1[C@H](C2CCCCC2)CN(c2ccccc2)c2cc(Cl)c(-c3ccnc(C(=O)O)c3)cc2S1(=O)=O` [Example 137, (R)-4-(7-chloro-3-cyclohexyl-2-methyl-1,1-dioxido-5-phenyl-2,3,4,5-tetrahydrobenzo[f][1,2,5]thiadiazepin-8-yl)picolinic acid], the EC50 was 100 to 1000 nM.

As to `Cc1ccc(Oc2cc3c(cc2-c2ccc(F)c(C(=O)O)c2)S(=O)(=O)N(C)[C@H](C2CCCCC2)CN3c2ccccc2)cc1F` [Example 411], the EC50 is < 100 nM. As for `COCCOc1cc2c(cc1-c1cc(NC(=O)OCC(C)C)c(C(=O)O)s1)S(=O)(=O)N(C)[C@H](C1CCCCC1)CN2c1ccccc1` [Example 516, (R)-5-(3-cyclohexyl-7-(2-methoxyethoxy)-2-methyl-1,1-dioxido-5-phenyl-2,3,4,5-tetrahydrobenzo[f][1,2,5]thiadiazepin-8-yl)-3-((isobutoxycarbonyl)amino)thiophene-2-carboxylic acid], the figure is < 100 nM; as for `CN1[C@H](CC(C)(C)C)CN(c2ccccc2)c2cc(Cl)c(-c3ccc(F)c(C(=O)O)c3)cc2S1(=O)=O` [Example 50], 100 to 1000 nM.

In the case of `CN1[C@H](C2CCCCC2)CN(c2ccccc2)c2cc(OCCCCO)c(-c3ccc(F)c(C(=O)O)c3)cc2S1(=O)=O` [Example 365], the EC50 was < 100 nM.

For `COc1cc(-c2cc3c(cc2Cl)N(c2ccccc2)C[C@@H](C2CCCCC2)N(C)S3(=O)=O)cc(C(=O)O)c1N` [Example 191], the EC50 was < 100 nM.
